Data: patent publication US20240182531A1, “KV1.3 Blockers” (priority 2021, published 2024)
Where a SMILES comes first, the peptide text is derived from it. Bridges are numbered along the chain shown (N, C = ends). [ ]: non-standard residue; d: D form. Nle = CCCC[C@H](N)C(=O)O; Dab = NCC[C@H](N)C(=O)O

How the values were obtained:
[1] = Pharmacokinetic characterisation after single s.c. injection in Sprague Dawley rats; conditions: male, rat, plasma, sc, 100 nmol/kg
Description: Sprague Dawley (males with a body weight of approximately 250-350 g) were given a single subcutaneous (s.c.) injection of each peptide to be tested.
Following s.c. administration of the selected compounds (dose 100 nmol/kg, dosing volume either 2 mL/kg), blood samples were drawn at 5 min, 15 min, 30 min, 60 min, 2 h, 3 h, 4 h, 6 h, 8 h post-dose. At each sampling time point, samples from the rats were drawn by sublingual bleeding. After last sampling the rats were sacrificed by O2/CO2 anaesthesia. The dosing vehicle was 10 mM phosphate, 0.8% NaCl, 0.05% Polysorbate 20 (pH 6.0).
Plasma samples were analyzed after solid phase extraction (SPE) by liquid chromatography mass spectrometry (LC-MS/MS). Mean plasma concentrations were used for calculation of the pharmacokinetic parameters using the non-compartmental approach in Phoenix WinNonlin 6.4 or a later version. Plasma terminal elimination half-life (T½) was determined as In(2)/λz where λz is the magnitude of the slope of the log linear regression of the log concentration versus time profile during the terminal phase. AUCinf is the area under the plasma concentration—time curve extrapolated to infinity (AUCinf=AUClast+Clast/λz, where Clast is the last observed plasma concentration). Cmax is the maximum observed concentration, occurring at Tmax.

human Kv1.1 = biological target: T1, human Kv1.1 (Homo sapiens, UniProt Q09470); experiment: cell-based; conditions: for Selectivity ratio Kv1.1/Kv1.3: ratio of patch clamp IC50 values
T1 construct: expressed in transfected cells; host or cells: CHO

human Kv1.2 = biological target: T2, human Kv1.2 (Homo sapiens, UniProt P16389); experiment: cell-based; conditions: for Selectivity ratio Kv1.2/Kv1.3: ratio of patch clamp IC50 values
T2 construct: expressed in transfected cells; host or cells: CHO

[2] = biological target: T3, human Kv1.3 voltage-gated K+ channel (Homo sapiens, UniProt P22001); experiment: Kv1.3 blocker activity in FLIPR thallium assay; assay type: cell-based
T3 construct: host or cells: CHO-DUKX
Summary of the method: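 CHO-DUKX cells stably expressing Kv1.3 were pre-incubated with compound for 30 min at 37° C in buffer with 0.02% w/v casein. Depolarization used final stimulus buffer with 5 mM K2SO4 and 1 mM Tl2SO4. Thallium-flux fluorescence was read at maximum response at 50 s, 37° C, and IC50 derived.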

human Kv1.6 = biological target: T4, human Kv1.6 (Homo sapiens, UniProt P17658); experiment: cell-based; conditions: for Selectivity ratio Kv1.6/Kv1.3: ratio of patch clamp IC50 values
T4 construct: expressed in transfected cells; host or cells: CHO

human Kv1.3 = biological target: T5, human Kv1.3 (Homo sapiens, UniProt P22001); experiment: cell-based; conditions: CHO cells, QPatch whole-cell; read-out: Potency IC50 Kv1.3
T5 construct: expressed in transfected cells; host or cells: CHO

[3] = biological target: human Kv1.1 potassium ion channel (human) (UniProt Q09470); experiment: cell-based or functional assay
[4] = biological target: human Kv1.3 (potassium voltage-gated channel subfamily A member 3) (human) (UniProt P22001); experiment: cell-based or functional assay
[5] = biological target: human Kv1.6 potassium ion channel (human) (UniProt P17658); experiment: cell-based or functional assay
[6] = biological target: human Kv1.2 potassium ion channel (human) (UniProt P16389); experiment: cell-based or functional assay
[7] = biological target: human Kv1.3 voltage-gated K+ channel (potassium voltage-gated channel subfamily A member 3) (human) (UniProt P22001); experiment: cell-based or functional assay
[8] = Pharmacokinetic characterisation according to example 6 of PCT/EP2020/076187; conditions: in vivo; dose 70 nmol/kg
Description: The pharmacokinetic characterization of compound 14 were performed according to the method described in example 6 of international patent application PCT/EP2020/076187.

Rat whole blood = Rat whole blood (Rattus norvegicus, UniProt P15384); assay type: cell-based; conditions: IL-17A release, thapsigargin, 24 Hr, at least 2 replicates
Sequence of Rat whole blood (P15384 whole entry): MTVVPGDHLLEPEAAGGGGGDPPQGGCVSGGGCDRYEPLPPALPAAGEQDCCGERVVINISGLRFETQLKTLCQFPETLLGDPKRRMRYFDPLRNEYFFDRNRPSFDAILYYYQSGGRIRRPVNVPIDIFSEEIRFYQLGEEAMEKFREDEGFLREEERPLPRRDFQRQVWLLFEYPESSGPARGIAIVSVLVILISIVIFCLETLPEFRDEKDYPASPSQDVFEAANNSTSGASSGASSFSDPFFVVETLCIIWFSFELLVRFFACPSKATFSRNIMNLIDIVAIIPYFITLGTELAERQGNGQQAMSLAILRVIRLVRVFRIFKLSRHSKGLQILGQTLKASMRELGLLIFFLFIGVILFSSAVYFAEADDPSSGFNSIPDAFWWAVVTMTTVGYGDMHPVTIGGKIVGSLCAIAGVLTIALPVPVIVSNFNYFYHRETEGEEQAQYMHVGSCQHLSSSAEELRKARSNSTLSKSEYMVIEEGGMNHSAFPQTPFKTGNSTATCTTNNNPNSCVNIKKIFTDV

T4 sequence (P17658 whole entry): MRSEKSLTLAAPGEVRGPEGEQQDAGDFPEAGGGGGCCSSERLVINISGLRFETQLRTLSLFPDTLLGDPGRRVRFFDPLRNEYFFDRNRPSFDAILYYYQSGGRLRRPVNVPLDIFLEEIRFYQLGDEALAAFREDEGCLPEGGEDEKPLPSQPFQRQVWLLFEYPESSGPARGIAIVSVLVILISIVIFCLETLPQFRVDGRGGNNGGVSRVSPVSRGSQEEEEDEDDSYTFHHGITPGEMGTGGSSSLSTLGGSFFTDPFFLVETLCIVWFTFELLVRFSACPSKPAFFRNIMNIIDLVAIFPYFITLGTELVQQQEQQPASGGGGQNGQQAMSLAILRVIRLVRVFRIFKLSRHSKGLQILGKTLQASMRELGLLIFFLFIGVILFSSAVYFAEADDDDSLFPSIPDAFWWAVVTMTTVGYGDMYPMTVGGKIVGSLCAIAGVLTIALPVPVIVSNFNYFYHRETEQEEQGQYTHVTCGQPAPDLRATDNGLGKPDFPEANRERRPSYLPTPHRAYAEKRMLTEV
Sequence of human Kv1.6 potassium ion channel (human) (P17658 whole entry): as above
Sequence of human Kv1.3 (potassium voltage-gated channel subfamily A member 3) (human) (P22001 whole entry): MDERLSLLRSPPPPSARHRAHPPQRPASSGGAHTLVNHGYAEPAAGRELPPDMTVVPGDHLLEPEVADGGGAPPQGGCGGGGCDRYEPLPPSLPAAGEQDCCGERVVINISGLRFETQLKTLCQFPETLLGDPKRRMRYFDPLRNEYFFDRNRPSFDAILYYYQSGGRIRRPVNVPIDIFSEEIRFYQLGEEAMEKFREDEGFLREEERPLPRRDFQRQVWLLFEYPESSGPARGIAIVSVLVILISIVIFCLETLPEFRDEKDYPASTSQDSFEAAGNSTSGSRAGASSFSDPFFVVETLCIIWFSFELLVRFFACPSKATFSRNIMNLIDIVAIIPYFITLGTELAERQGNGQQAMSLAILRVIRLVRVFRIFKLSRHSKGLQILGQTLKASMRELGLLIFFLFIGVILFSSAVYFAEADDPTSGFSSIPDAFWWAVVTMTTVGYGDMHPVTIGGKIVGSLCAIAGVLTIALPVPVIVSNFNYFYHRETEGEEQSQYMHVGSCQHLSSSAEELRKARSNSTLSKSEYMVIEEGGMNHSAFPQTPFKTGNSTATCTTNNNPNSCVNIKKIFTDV
Sequence of human Kv1.1 potassium ion channel (human) (Q09470 whole entry): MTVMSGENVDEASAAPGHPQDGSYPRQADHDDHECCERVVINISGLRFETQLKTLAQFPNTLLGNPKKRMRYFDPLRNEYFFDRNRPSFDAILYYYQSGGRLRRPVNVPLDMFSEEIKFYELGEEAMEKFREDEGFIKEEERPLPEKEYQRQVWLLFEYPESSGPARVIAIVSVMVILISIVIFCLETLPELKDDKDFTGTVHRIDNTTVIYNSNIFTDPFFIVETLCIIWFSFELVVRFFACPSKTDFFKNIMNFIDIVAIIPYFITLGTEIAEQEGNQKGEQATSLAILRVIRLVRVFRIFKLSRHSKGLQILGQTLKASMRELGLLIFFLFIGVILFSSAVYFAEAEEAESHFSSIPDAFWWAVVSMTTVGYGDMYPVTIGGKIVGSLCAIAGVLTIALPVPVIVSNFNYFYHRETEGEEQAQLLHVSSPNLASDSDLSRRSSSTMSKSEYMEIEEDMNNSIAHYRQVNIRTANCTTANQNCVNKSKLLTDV
T1 sequence (Q09470 whole entry): as above
T2 sequence (P16389 whole entry): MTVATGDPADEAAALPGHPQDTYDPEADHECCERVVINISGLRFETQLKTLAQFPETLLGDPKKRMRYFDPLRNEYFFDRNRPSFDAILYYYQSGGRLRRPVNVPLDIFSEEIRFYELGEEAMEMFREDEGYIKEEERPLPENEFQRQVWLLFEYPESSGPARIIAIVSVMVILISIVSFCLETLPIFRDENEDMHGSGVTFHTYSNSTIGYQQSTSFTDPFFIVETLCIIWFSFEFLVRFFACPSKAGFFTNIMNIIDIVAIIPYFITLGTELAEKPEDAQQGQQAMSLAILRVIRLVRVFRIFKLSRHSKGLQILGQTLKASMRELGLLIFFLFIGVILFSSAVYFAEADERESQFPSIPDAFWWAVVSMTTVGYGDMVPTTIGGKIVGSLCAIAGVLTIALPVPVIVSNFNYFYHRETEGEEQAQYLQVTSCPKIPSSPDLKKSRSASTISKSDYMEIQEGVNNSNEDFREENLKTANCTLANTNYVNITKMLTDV
Sequence of human Kv1.2 potassium ion channel (human) (P16389 whole entry): as above
T3 sequence (P22001 whole entry): as the sequence (P22001 whole entry) above
T5 sequence (P22001 whole entry): as above
Sequence of human Kv1.3 voltage-gated K+ channel (potassium voltage-gated channel subfamily A member 3) (human) (P22001 whole entry): as above

Row | Compound | Selectivity ratio Kv1.1/Kv1.3 (human Kv1.1) | Selectivity ratio Kv1.2/Kv1.3 (human Kv1.2) | Selectivity ratio Kv1.6/Kv1.3 (human Kv1.6) | Potency IC50 (nM) Kv1.1 [3] | Selectivity Kv1.1/Kv1.3 [3] | Potency IC50 (nM) Kv1.3 [4] | Potency IC50 (nM) Kv1.6 [5] | Selectivity Kv1.6/Kv1.3 [5] | Potency IC50 (nM) Kv1.2 [6] | Selectivity Kv1.2/Kv1.3 [6] | further results
1 | CCCC[C@H](NC(=O)[C@@H]1CCCN1)C(=O)N[C@@H](CCC(=O)O)C(=O)N[C@@H](CCCC)C(=O)N[C@@H](CCCNC(=N)N)C(=O)N[C@H]1CSSC[C@@H]2NC(=O)[C@H](CCCCN)NC(=O)CNC(=O)[C@H](Cc3ccccc3)NC(=O)[C@H]([C@@H](C)CC)NC(=O)[C@H](CO)NC(=O)CNC(=O)[C@H]([C@@H](C)CC)NC(=O)[C@H](C)NC(=O)[C@H](C)NC(=O)[C@H](CC(C)C)NC(=O)[C@@H]3CSSC[C@@H](C(=O)N[C@@H](Cc4ccc(O)cc4)C(=O)N4CCC[C@H]4C(=O)N[C@@H](CCCNC(=N)N)C(=O)O)NC(=O)[C@H](CCCCN)NC(=O)[C@H](CSSC[C@H](NC(=O)[C@H](CCC(=O)O)NC(=O)[C@H](C(C)C)NC(=O)[C@H](CO)NC(=O)[C@H](C)NC(=O)[C@H](CCN)NC1=O)C(=O)N[C@@H](CCCCN)C(=O)N[C@@H](CCC(N)=O)C(=O)N[C@@H](CCCCN)C(=O)N3)NC(=O)[C@H](CCCCN)NC(=O)[C@H](CCCCN)NC(=O)[C@H](CC(N)=O)NC(=O)[C@H](CCCC)NC2=O [Cpd No. 1] (H-P[Nle]E[Nle]RC[Dab]ASVECKQKCLAAIGSIFGKC[Nle]NKKCKCYPR-OH; disulfide 6-27, 12-32, 16-34) | >100000 | 17000 | >100000 | – | – | – | – | – | – | – | AUC(0-inf) [1]: 0.152 µM·h; Cmax [1]: 90.8 nM; half-life [1]: 1.7 h; IC50 (human Kv1.1; CHO cells, QPatch whole-cell, read-out: Potency IC50 Kv1.1): > 3000 nM; IC50 (human Kv1.2; CHO cells, QPatch whole-cell, read-out: Potency IC50 Kv1.2): 480 nM; IC50 [2]: 0.12 nM; IC50 (human Kv1.6; CHO cells, QPatch whole-cell, read-out: Potency IC50 Kv1.6): > 3000 nM; IC50 (human Kv1.3): 0.028 nM
2 | Moka1 (peptide) | – | – | – | > 3000 nM | > 300 | 9 nM | > 3000 nM | > 300 | 275 nM | 31 | –
3 | ShK-186: H-[phosphotyrosyl][8-Amino-3,6-dioxaoctanoyl]…-NH2 (peptide) | – | – | – | – | – | – | – | – | – | – | IC50 of IL-2 release, anti-CD3 stimulated human PBMCs (Example 5b) [7]: 0.05 nM
4 | Vm24 (peptide) | – | – | – | 0.097 nM | 0.65 | 0.15 nM | 21 nM | 139 | 4.7 nM | 31 | –
5 | CCCC[C@H](NC(=O)[C@@H]1CCCN1)C(=O)N[C@@H](CCC(=O)O)C(=O)N[C@@H](CCCC)C(=O)N[C@@H](CCCNC(=N)N)C(=O)N[C@H]1CSSC[C@@H]2NC(=O)[C@H](CCCCN)NC(=O)CNC(=O)[C@H](Cc3ccccc3)NC(=O)[C@H]([C@@H](C)CC)NC(=O)[C@H](CO)NC(=O)CNC(=O)[C@H]([C@@H](C)CC)NC(=O)[C@H](C)NC(=O)[C@H](C)NC(=O)[C@H](CC(C)C)NC(=O)[C@@H]3CSSC[C@@H](C(=O)N[C@@H](Cc4ccc(O)cc4)C(=O)N4CCC[C@H]4C(=O)N[C@@H](CCCNC(=N)N)C(N)=O)NC(=O)[C@H](CCCCN)NC(=O)[C@H](CSSC[C@H](NC(=O)[C@H](CCC(=O)O)NC(=O)[C@H](C(C)C)NC(=O)[C@H](CO)NC(=O)[C@H](C)NC(=O)[C@H](CO)NC1=O)C(=O)N[C@@H](CCCCN)C(=O)N[C@@H](CCC(N)=O)C(=O)N[C@@H](CCCCN)C(=O)N3)NC(=O)[C@H](CCCCN)NC(=O)[C@H](CCCCN)NC(=O)[C@H](CC(N)=O)NC(=O)[C@H](CCCC)NC2=O [compound 13] (H-P[Nle]E[Nle]RCSASVECKQKCLAAIGSIFGKC[Nle]NKKCKCYPR-NH2; disulfide 6-27, 12-32, 16-34) | >16200 | 1689 | >16200 | – | – | – | – | – | – | – | AUC(0-inf) [8]: 0.0268 µM·h; Cmax [8]: 16.5 nM; half-life [8]: 1.7 h; IC50 (Rat whole blood): 0.34 nM
6 | ShK (peptide) | – | – | – | – | – | 0.017 nM | 0.19 nM | – | 11 nM | – | –
